In publication PMC3634352 (Journal of the American Chemical Society, 2013):

What was measured:
S. aureus SgtB [1] = biological target: T1, S. aureus SgtB (Staphylococcus aureus, UniProt Q99T05); assay type: binding; details: for drop in FP (probe displacement) when used instead of moenomycin: detergent controls
T1 sequence (Q99T05 1-269): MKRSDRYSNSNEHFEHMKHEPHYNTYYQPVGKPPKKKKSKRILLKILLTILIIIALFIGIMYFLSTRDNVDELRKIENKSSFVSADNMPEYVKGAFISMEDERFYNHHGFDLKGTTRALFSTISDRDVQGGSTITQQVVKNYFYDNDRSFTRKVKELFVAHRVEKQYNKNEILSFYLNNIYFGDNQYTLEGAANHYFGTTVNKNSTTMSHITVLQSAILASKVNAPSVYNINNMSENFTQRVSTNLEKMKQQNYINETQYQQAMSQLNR

[2] = background statement; cited from earlier work
S. aureus SgtB [3] = biological target: T1, S. aureus SgtB; assay type: biochemical
E. coli PBP1b = E. coli PBP1b (Escherichia coli, UniProt P02919); test: in vitro PGT inhibition; assay type: biochemical
Sequence of E. coli PBP1b (P02919 whole entry): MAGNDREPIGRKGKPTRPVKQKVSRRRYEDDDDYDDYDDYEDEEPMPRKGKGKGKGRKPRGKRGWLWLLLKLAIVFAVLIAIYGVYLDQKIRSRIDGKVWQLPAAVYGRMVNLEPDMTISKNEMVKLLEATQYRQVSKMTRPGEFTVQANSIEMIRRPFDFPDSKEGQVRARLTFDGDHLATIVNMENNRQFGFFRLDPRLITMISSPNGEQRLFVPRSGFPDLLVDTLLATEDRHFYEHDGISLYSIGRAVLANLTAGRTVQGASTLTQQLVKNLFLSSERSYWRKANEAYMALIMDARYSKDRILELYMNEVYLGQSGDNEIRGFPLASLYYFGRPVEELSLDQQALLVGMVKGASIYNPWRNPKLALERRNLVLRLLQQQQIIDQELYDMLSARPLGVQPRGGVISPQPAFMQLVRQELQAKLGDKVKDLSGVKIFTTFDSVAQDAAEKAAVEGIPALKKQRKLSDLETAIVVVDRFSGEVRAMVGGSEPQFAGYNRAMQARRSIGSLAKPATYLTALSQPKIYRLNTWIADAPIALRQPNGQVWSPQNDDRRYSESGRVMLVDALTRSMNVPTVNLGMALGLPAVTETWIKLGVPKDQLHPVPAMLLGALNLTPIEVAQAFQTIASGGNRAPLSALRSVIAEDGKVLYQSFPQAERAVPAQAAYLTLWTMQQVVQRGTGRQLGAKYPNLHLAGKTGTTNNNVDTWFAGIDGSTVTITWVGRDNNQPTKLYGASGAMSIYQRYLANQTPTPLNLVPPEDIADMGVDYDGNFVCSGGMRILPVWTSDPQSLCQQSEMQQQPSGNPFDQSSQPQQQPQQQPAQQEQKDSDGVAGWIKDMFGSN

| Compound | drop in FP (probe displacement) when used instead of moenomycin (S. aureus SgtB [1]) | oral bioavailability [2] | serum half life [2] | Ki (S. aureus SgtB [1]; read-out: Ki, displacement of probe 2, probe 2 75 nM, S. aureus SgtB 0.2 μM) | inhibition of enzyme (in words) (S. aureus SgtB [3]) | inhibition of enzyme (in words) (E. coli PBP1b) |
| --- | --- | --- | --- | --- | --- | --- |
| tween-20 | no significant drop in FP |  |  |  |  |  |
| moenomycin A [compound 1] |  | poor oral bioavailability | long serum half life | 640 nM | low-nanomolar inhibition | low-nanomolar inhibition |
| CCCCCCCCCCCCO[C@@H]1O[C@H](CO)[C@@H](O[C@H]2O[C@H](CO)[C@@H](O)[C@H](O)[C@H]2O)[C@H](O)[C@H]1O [dodecyl maltoside] | no significant drop in FP |  |  |  |  |  |
